This note sets out measurements from patent publication US20230233690A1, “ANDROGEN RECEPTOR PROTEIN DEGRADERS” (THE REGENTS OF THE UNIVERSITY OF MICHIGAN, priority 2020, published 2023).

Data set [1] can be described thus: PK parameters in male mice (Table 9). The class given is in vivo. Particulars: for Vd: read-out: Vss; for F: PO 3 mg/kg vs IV 1 mg/kg. On the procedure:
The pharmacokinetics (PK) of representative Compounds of the Disclosure were evaluated in mice or rats to provide an assessment of their oral bioavaibility. All animal experiments were performed under the guidelines of the University of Michigan Committee for Use and Care of Animals and using an approved animal protocol.

For the next data set, the target named is T1, AR protein (Homo sapiens, UniProt P10275).
T1 construct: endogenous in cells; host or cells: VCaP
T1 sequence (P10275 1-920): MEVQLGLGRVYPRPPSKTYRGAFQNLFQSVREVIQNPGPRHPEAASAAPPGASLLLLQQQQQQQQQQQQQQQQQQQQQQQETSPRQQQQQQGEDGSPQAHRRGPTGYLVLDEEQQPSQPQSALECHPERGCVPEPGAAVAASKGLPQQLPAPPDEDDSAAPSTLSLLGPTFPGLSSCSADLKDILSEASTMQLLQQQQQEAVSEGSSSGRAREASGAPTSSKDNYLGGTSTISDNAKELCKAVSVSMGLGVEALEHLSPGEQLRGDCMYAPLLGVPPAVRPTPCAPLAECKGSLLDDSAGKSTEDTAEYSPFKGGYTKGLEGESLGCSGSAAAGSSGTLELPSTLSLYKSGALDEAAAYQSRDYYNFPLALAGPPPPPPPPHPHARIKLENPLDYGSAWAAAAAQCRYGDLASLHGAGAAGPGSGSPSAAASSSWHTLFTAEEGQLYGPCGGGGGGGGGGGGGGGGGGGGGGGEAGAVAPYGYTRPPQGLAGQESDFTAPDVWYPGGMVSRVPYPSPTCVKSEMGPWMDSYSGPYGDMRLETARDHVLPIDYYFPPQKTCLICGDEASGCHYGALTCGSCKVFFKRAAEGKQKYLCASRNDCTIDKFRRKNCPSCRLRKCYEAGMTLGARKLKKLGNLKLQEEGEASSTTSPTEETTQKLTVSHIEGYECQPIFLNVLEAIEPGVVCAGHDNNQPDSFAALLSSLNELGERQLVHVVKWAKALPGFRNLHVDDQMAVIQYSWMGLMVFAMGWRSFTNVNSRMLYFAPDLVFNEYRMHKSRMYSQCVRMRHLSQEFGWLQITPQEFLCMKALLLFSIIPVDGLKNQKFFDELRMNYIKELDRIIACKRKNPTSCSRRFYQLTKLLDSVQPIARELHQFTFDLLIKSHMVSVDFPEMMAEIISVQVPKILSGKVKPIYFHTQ
Briefly: Western blotting of AR protein degradation in VCaP cells. In kind it is cell-based. Particulars: for AR protein degradation VCap 100 nM / AR protein degradation VCap 10 nM: 24 hr treatment. On the procedure: The treated cells were lysed with RIPA buffer. […] GAPDH was used as a loading control.
Bands were quantified with ImageJ software. The relative numbers of each band obtained from normalization with its corresponding GAPDH level were compared with Prism 8 software. The DC50 values were produced from Prism 8, and the DC90 values were calculated with an equation=Bottom+(Top−Bottom)/(1+10^((Log EC50−X)*HillSlope) based on DC50 and Hillslope values.

Setting [2] is: ICR, mouse, in vivo, IV 1 mg/kg.
Setting [3] is: ICR, mouse, in vivo, IV 1 mg/kg, read-out: AUC(0-t).
Where [4] appears, read: ICR, mouse, in vivo, PO 3 mg/kg.
Setting [5] is: ICR, mouse, in vivo, PO 3 mg/kg, read-out: AUC(0-t).
[6] abbreviates: ICR, mouse, in vivo, PO 3 mg/kg, read-out: Cmax.
Setting [7] is: ICR, mouse, in vivo, PO 3 mg/kg, read-out: Tmax.

Like-named read-outs stand apart in the source and are kept apart here.

`N#Cc1ccc(O[C@H]2CC[C@H](NC(=O)c3ccc(N4CCN(C5CCN(c6ccc7c(c6)C(=O)N(C6CCC(=O)NC6=O)C7=O)CC5)CC4)cc3)CC2)cc1Cl` (stereo partly shown) [compound 222, N-((1r,4r)-4-(3-chloro-4-cyanophenoxy)cyclohexyl)-4-(4-(1-(2-(2,6-dioxopiperidin-3-yl)-1,3-dioxoisoindolin-5-yl)piperidin-4-yl)piperazin-1-yl)benzamide] showed a clearance in data set [1] (setting [2]) of 7.33 mL/min/kg. Further, the half-life in data set [1] (setting [2]) was 9 h; in data set [1] (setting [4]), 11.3 h. Further, the exposure AUC(0-t) was determined as 1980 ng·h/mL in data set [1] (setting [3]) and 1990 ng·h/mL in data set [1] (setting [5]). Moreover, in data set [1] (setting [2]), the Vd is 4.75 L/kg. Also, the Cmax in data set [1] (setting [6]) was determined as 122 ng/mL. Also, the Tmax in data set [1] (setting [7]) came to 6 h. Further, in data set [1], the F came to 33%. In addition, the “% AR protein degradation in VCaP Cells” value at AR protein (0.001 μM) was 63%; on AR protein (0.01 μM) it was 59%; at AR protein (0.1 μM), 60%; on AR protein (1 μM), 43%.

For `CN(c1ccc(C#N)c(Cl)c1)[C@H]1CC[C@H](NC(=O)c2ccc(N3CCC(N4CCN(c5ccc6c(c5)C(=O)N(C5CCC(=O)NC5=O)C6=O)CC4)CC3)cc2)CC1` (stereo partly shown) [compound 230, N-((1r,4r)-4-((3-chloro-4-cyanophenyl)(methyl)amino)cyclohexyl)-4-(4-(4-(2-(2,6-dioxopiperidin-3-yl)-1,3-dioxoisoindolin-5-yl)piperazin-1-yl)piperidin-1-yl)benzamide], the clearance in data set [1] (setting [2]) is 5.5 mL/min/kg. In addition, in data set [1] (IV 1 mg/kg), the “AUC(0-t)” value came out at 2857 ng·h/mL, the T1/2 worked out at 6.6 h and the Vss was found to be 2.73 L/kg. Moreover, in data set [1] (PO 3 mg/kg), the exposure AUC(0-t) was 3811 ng·h/mL, the Cmax worked out at 251 ng/mL, the T1/2 is 10.6 h and the time to peak (Tmax) turned out to be 5.3 h. In data set [1], this molecule yielded an F of 44%.

With `CCN(c1ccc(C#N)c(Cl)c1)[C@H]1CC[C@H](NC(=O)c2ccc(N3CCC(N4CCN(c5ccc6c(c5)C(=O)N(C5CCC(=O)NC5=O)C6=O)CC4)CC3)cc2)CC1` (stereo partly shown) [compound 231, N-((1r,4r)-4-((3-chloro-4-cyanophenyl)(ethyl)amino)cyclohexyl)-4-(4-(4-(2-(2,6-dioxopiperidin-3-yl)-1,3-dioxoisoindolin-5-yl)piperazin-1-yl)piperidin-1-yl)benzamide], in data set [1] (setting [2]), the clearance is 31.2 mL/min/kg, the half-life was 4.1 h and the Vd came to 4.34 L/kg. Also, the area under the curve AUC(0-t) in data set [1] (setting [3]) worked out at 539 ng·h/mL. This molecule also gave a half-life in data set [1] (setting [4]) of 2.4 h. For the same molecule, the exposure AUC(0-t) in data set [1] (setting [5]) is 492 ng·h/mL. Further, the maximum concentration (Cmax) in data set [1] (setting [6]) is 102 ng/mL. The time to peak (Tmax) in data set [1] (setting [7]) is 1.7 h. The same molecule showed a F in data set [1] of 30%.

With `CN(c1ccc(C#N)c(Cl)c1)[C@H]1CC[C@H](NC(=O)c2ccc(N3CCN(CC4CN(c5ccc6c(c5)C(=O)N(C5CCC(=O)NC5=O)C6=O)C4)CC3)cc2)CC1` (stereo partly shown) [compound 237, N-((1r,4r)-4-((3-chloro-4-cyanophenyl)(methyl)amino)cyclohexyl)-4-(4-((1-(2-(2,6-dioxopiperidin-3-yl)-1,3-dioxoisoindolin-5-yl)azetidin-3-yl)methyl)piperazin-1-yl)benzamide], in data set [1] (IV 1 mg/kg), the “AUC(0-t)” value is 1226 ng·h/mL, the Cl amounted to 13.7 mL/min/kg, the T1/2 is on record as 3.8 h and the volume of distribution (Vss) stood at 3.92 L/kg. Besides, in data set [1] (PO 3 mg/kg), the “AUC(0-t)” value came to 1111 ng·h/mL, the highest concentration (Cmax) is given as 127 ng/mL, the T1/2 was found to be 4.3 h and the Tmax is listed as 5.3 h. In addition, the F in data set [1] is listed as 30%.

As for `N#Cc1ccc(O[C@H]2CC[C@H](NC(=O)c3ccc(N4CCC(N5CCN(c6ccc7c(c6)C(=O)N(C6CCC(=O)NC6=O)C7=O)CC5)CC4)cc3)C2)cc1Cl` (stereo partly drawn) [compound 226, N-((1S,3S)-3-(3-chloro-4-cyanophenoxy)cyclopentyl)-4-(4-(4-(2-(2,6-dioxopiperidin-3-yl)-1,3-dioxoisoindolin-5-yl)piperazin-1-yl)piperidin-1-yl)benzamide], the “% AR protein degradation in VCaP Cells” value is listed as 2% at AR protein (0.001 μM), 3% at AR protein (0.01 μM), 23% at AR protein (0.1 μM) and 18% on AR protein (1 μM).

`CN(c1ccc(C(=O)N2CCN(CC3CCN(c4ccc5c(c4)C(=O)N(C4CCC(=O)NC4=O)C5=O)CC3)CC2)cc1)[C@H]1CC[C@H](Oc2ccc(C#N)c(Cl)c2)CC1` (stereo partly shown) [compound 15]: the “AR protein degradation VCap 100 nM” value at AR protein was “B (>50% degradation but <90% (24 hr treatment))”.

Take `N#Cc1ccc(O[C@H]2CC[C@H](NC(=O)c3ccc(NCCCCCNc4ccc5c(c4)C(=O)N(C4CCC(=O)NC4=O)C5=O)cc3)CC2)cc1Cl` (stereo partly shown) [compound 211, N-((1r,4r)-4-(3-chloro-4-cyanophenoxy)cyclohexyl)-4-((5-((2-(2,6-dioxopiperidin-3-yl)-1,3-dioxoisoindolin-5-yl)amino)pentyl)amino)benzamide]: the “% AR protein degradation in VCaP Cells” value at AR protein (0.001 μM) worked out at 59%; at AR protein (0.01 μM), 82%; on AR protein (0.1 μM), 82%; at AR protein (1 μM), 79%.

Turning to `N#Cc1ccc(O[C@H]2CC[C@H](NC(=O)c3ccc(N4CCC5(CC4)CCN(C4CCN(c6ccc7c(c6)C(=O)N(C6CCC(=O)NC6=O)C7=O)CC4)CC5)cc3)CC2)cc1Cl` (stereo partly shown) [compound 7], on AR protein, the “AR protein degradation VCap 10 nM” value is listed as “B (>50% degradation but <90% (24 hr treatment))” and the “AR protein degradation VCap 100 nM” value is “C (>10% degradation but <50% (24 hr treatment))”.

On to `N#Cc1ccc(O[C@H]2CC[C@H](NC(=O)c3ccc(NCCCCCCCCCCNc4ccc5c(c4)C(=O)N(C4CCC(=O)NC4=O)C5=O)cc3)CC2)cc1Cl` (stereo partly shown) [compound 216, N-((1r,4r)-4-(3-chloro-4-cyanophenoxy)cyclohexyl)-4-((10-((2-(2,6-dioxopiperidin-3-yl)-1,3-dioxoisoindolin-5-yl)amino)decyl)amino)benzamide], for which the “% AR protein degradation in VCaP Cells” value is recorded as −11% on AR protein (0.001 μM), −9% at AR protein (0.01 μM), 1% at AR protein (0.1 μM) and 22% on AR protein (1 μM).

For the molecule `CC1(C)C(=O)N(c2ccc(C#N)c(C(F)(F)F)c2)C(=S)N1c1ccc(C(=O)N2CCN(C3CCN(c4ccc5c(c4)C(=O)N(C4CCC(=O)NC4=O)C5=O)CC3)CC2)c(F)c1` (stereo not shown) [compound 242, 4-(3-(4-(4-(1-(2-(2,6-dioxopiperidin-3-yl)-1,3-dioxoisoindolin-5-yl)piperidin-4-yl)piperazine-1-carbonyl)-3-fluorophenyl)-4,4-dimethyl-5-oxo-2-thioxoimidazolidin-1-yl)-2-(trifluoromethyl)benzonitrile], the “% AR protein degradation in VCaP Cells” value was found to be 14% on AR protein (0.001 μM), 6% at AR protein (0.01 μM), 18% at AR protein (0.1 μM) and 31% at AR protein (1 μM).

In the case of `CN(c1ccc(C#N)c(Cl)c1)C1CCC(NC(=O)c2ccc(C#CC3CCN(C4CCN(c5ccc6c(c5)C(=O)N(C5CCC(=O)NC5=O)C6=O)CC4)CC3)cc2)CC1` (stereo not shown) [compound 32], on AR protein, the “AR protein degradation VCap 10 nM” value was “A (>90% degradation (24 hr treatment))” and the “AR protein degradation VCap 100 nM” value is “A (>90% degradation (24 hr treatment))”.

With `N#Cc1ccc(O[C@H]2CC[C@H](NC(=O)c3ccc4c(c3)CN(CC3CCN(c5ccc6c(c5)C(=O)N(C5CCC(=O)NC5=O)C6=O)CC3)C4)CC2)cc1Cl` (stereo partly shown) [compound 8], the “AR protein degradation VCap 100 nM” value on AR protein is “A (>90% degradation (24 hr treatment))”.

As to `N#Cc1ccc(N[C@H]2CC[C@H](NC(=O)c3ccc(N4CCN(C5CN(c6ccc7c(c6)C(=O)N(C6CCC(=O)NC6=O)C7=O)C5)CC4)cc3)CC2)cc1Cl` (stereo partly shown) [Cpd. No. 28, N-((1r,4r)-4-((3-chloro-4-cyanophenyl)amino)cyclohexyl)-4-(4-(1-(2-(2,6-dioxopiperidin-3-yl)-1,3-dioxoisoindolin-5-yl)azetidin-3-yl)piperazin-1-yl)benzamide], on AR protein, the “AR protein degradation VCap 10 nM” value is “A (>90% degradation (24 hr treatment))” and the “AR protein degradation VCap 100 nM” value is listed as “A (>90% degradation (24 hr treatment))”.

One may read the clearance as the rate of elimination divided by the concentration. The half-life is the time in which the quantity being followed falls by half. The low end stands for fast loss, the high end for slow loss. The AUC(0-t) is the area under the concentration-time curve up to a stated or last time point. Usually Cmax stands for the maximum level reached in the sampled fluid or tissue. As usually defined, the Tmax is the time at which the peak concentration occurs. As usually defined, the Vss is a proportionality between amount in the body and measured concentration, not a real space.
